Converted amounts (≈) assume the structure as drawn. Where two headings read alike, the source gives them in different places.
Assays:
Escherichia coli JR225 = assay: microbe, parasite or virus in culture; assay type: cell-based; settings: resistance mechanism AAC(3), Mueller-Hinton agar, 37° C
Serratia marcescens = assay: MIC, standard serial dilution method; assay type: cell-based; settings: Mueller-Hinton agar, 37° C
[1] = tested on: Pseudomonas aeruginosa GN 315; assay: MIC, standard serial dilution method; assay type: cell-based; settings: GN315; Pseudomonas aeruginosa GN 315; resistance mechanism AAC(6'); Mueller-Hinton agar, 37° C; read-out: MIC
Escherichia coli K-12 = assay: MIC, standard serial dilution method; assay type: cell-based; settings: K12; Escherichia coli K-12; Mueller-Hinton agar, 37° C; read-out: MIC
Bacillus subtilis PCI219 = assay: MIC, standard serial dilution method; assay type: cell-based; settings: Mueller-Hinton agar, 37° C
[2] = tested on: Corynebacterium bovis 1810; assay: MIC, standard serial dilution method; assay type: cell-based; settings: Mueller-Hinton agar, 37° C
[3] = tested on: Escherichia coli K-12 LA 290 R55; assay: microbe, parasite or virus in culture; assay type: cell-based; settings: K12LA290R55
Escherichia coli K-12 R5 = assay: microbe, parasite or virus in culture; assay type: cell-based; settings: K12R5; Escherichia coli K-12 R5; resistance mechanism AAC(6'); Mueller-Hinton agar, 37° C
Mycobacterium 607 = assay: MIC, standard serial dilution method; assay type: cell-based; settings: Mueller-Hinton agar, 37° C
[4] = tested on: Staphylococcus aureus 209P; assay: MIC, standard serial dilution method; assay type: cell-based; settings: Mueller-Hinton agar, 37° C
[5] = tested on: Escherichia coli K-12 ML 1629; assay: microbe, parasite or virus in culture; assay type: cell-based; settings: K12ML1629
[6] = tested on: Escherichia coli JR66/W677; assay: microbe, parasite or virus in culture; assay type: cell-based; settings: resistance mechanism APH(3')-II, ANT(2"), Mueller-Hinton agar, 37° C
[7] = tested on: Staphylococcus aureus Ap01; assay: MIC, standard serial dilution method; assay type: cell-based; settings: resistance mechanism ANT(4'), Mueller-Hinton agar, 37° C
Providencia sp. Pv 16 = assay: MIC, standard serial dilution method; assay type: cell-based; settings: SP.PV16, resistance mechanism AAC(2'), Mueller-Hinton agar, 37° C
in vivo = settings: mouse, iv, pH 7
From the text: Further, in order to estimate acute toxicity of the compound of the general formula (I) according to this invention, some examples of the compounds of this invention were independently dissolved in water to prepare aqueous solutions (as adjusted to pH 7 by addition of hydrochloric acid). […] The tested compounds of this invention are expressed by the same abbreviations as in Table 1. […] The comparative compounds as tested are also expressed by the same abbreviations as in Table 1.

Proteus rettgeri GN 311 = assay: MIC, standard serial dilution method; assay type: cell-based; settings: Providencia rettgeri, GN311; Proteus rettgeri GN 311; Mueller-Hinton agar, 37° C; read-out: MIC
[8] = tested on: Pseudomonas aeruginosa A3; assay: MIC, standard serial dilution method; assay type: cell-based; settings: Mueller-Hinton agar, 37° C
[9] = tested on: Klebsiella pneumoniae 22#3038; assay: MIC, standard serial dilution method; assay type: cell-based; settings: resistance mechanism APH(3')-II, ANT(2"), Mueller-Hinton agar, 37° C
[10] = Escherichia coli K-12 LA 290 R55, resistance mechanism ANT(2"), Mueller-Hinton agar, 37° C
[11] = Escherichia coli K-12 ML 1629, resistance mechanism APH(3')-I, Mueller-Hinton agar, 37° C, read-out: MIC

Compound: CN[C@@H]1[C@@H](O)[C@@H](O[C@H]2[C@H](N)C[C@H](N)[C@@H](O[C@H]3O[C@H](CN)CC[C@H]3N)C2(F)F)OC[C@]1(C)O [5FF-Genta-C1a, 5-deoxy-5,5-difluorogentamicin C1a]
- MIC (Escherichia coli JR225): 3.12 mg/L (≈ 6.64 µM)
- MIC (Serratia marcescens): 6.25 mg/L (≈ 13.3 µM)
- MIC [1]: 100 mg/L (≈ 213 µM)
- MIC (Escherichia coli K-12): < 0.2 mg/L
- MIC (Bacillus subtilis PCI219): 0.39 mg/L (≈ 0.831 µM)
- MIC [2]: 0.78 mg/L (≈ 1.66 µM)
- MIC [3, 10]: 3.12 mg/L (≈ 6.64 µM)
- MIC (Escherichia coli K-12 R5): 12.5 mg/L (≈ 26.6 µM)
- MIC (Mycobacterium 607): 0.78 mg/L (≈ 1.66 µM)
- MIC [4]: 0.78 mg/L (≈ 1.66 µM)
- MIC [5, 11]: 0.39 mg/L (≈ 0.831 µM)
- MIC [6]: 1.56 mg/L (≈ 3.32 µM)
- MIC [7]: 3.12 mg/L (≈ 6.64 µM)
- MIC (Providencia sp. Pv 16): 12.5 mg/L (≈ 26.6 µM)
- LD50 (in vivo): ~240 mg/kg
- MIC (Proteus rettgeri GN 311): 0.39 mg/L (≈ 0.831 µM)
- MIC [8]: 0.78 mg/L (≈ 1.66 µM)
- MIC [9]: 1.56 mg/L (≈ 3.32 µM)

Compound: CCN[C@@H]1C[C@H](N)[C@@H](O[C@H]2OC(CN)=CC[C@H]2N)C(F)(F)[C@H]1O[C@H]1OC[C@](C)(O)[C@H](NC)[C@H]1O [5FF-Netilmicin, 5-deoxy-5,5-difluoronetilmicin]
- MIC (Escherichia coli JR225): 1.56 mg/L (≈ 3.15 µM)
- MIC (Serratia marcescens): 6.25 mg/L (≈ 12.6 µM)
- MIC [1]: > 100 mg/L
- MIC (Escherichia coli K-12): < 0.2 mg/L
- MIC (Bacillus subtilis PCI219): 0.39 mg/L (≈ 0.787 µM)
- MIC [2]: 1.56 mg/L (≈ 3.15 µM)
- MIC [3, 10]: 0.39 mg/L (≈ 0.787 µM)
- MIC (Escherichia coli K-12 R5): 50 mg/L (≈ 101 µM)
- MIC (Mycobacterium 607): 1.56 mg/L (≈ 3.15 µM)
- MIC [4]: 3.12 mg/L (≈ 6.3 µM)
- MIC ([5]; Escherichia coli): 0.78 mg/L (≈ 1.57 µM)
- MIC [6]: 0.78 mg/L (≈ 1.57 µM)
- MIC [7]: 12.5 mg/L (≈ 25.2 µM)
- MIC (Providencia sp. Pv 16): 12.5 mg/L (≈ 25.2 µM)
- LD50 (in vivo): 47 mg/kg
- MIC (Proteus rettgeri GN 311): 1.56 mg/L (≈ 3.15 µM)
- MIC [8]: 1.56 mg/L (≈ 3.15 µM)
- MIC [9]: 1.56 mg/L (≈ 3.15 µM)

Compound: NC[C@@H]1CC[C@@H](N)[C@@H](O[C@@H]2[C@@H](N)C[C@@H](N)[C@H](O[C@H]3O[C@H](CO)[C@@H](O)[C@H](N)[C@H]3O)C2(F)F)O1 [Compound 5FF-DKB, 5,3',4'-trideoxy-5,5-difluorokanamycin B]
- MIC (Escherichia coli JR225): 3.12 mg/L (≈ 6.62 µM)
- MIC (Serratia marcescens): 12.5 mg/L (≈ 26.5 µM)
- MIC [1]: > 100 mg/L
- MIC (Escherichia coli K-12): 0.39 mg/L (≈ 0.827 µM)
- MIC (Bacillus subtilis PCI219): 0.39 mg/L (≈ 0.827 µM)
- MIC [2]: 1.56 mg/L (≈ 3.31 µM)
- MIC [3, 10]: 1.56 mg/L (≈ 3.31 µM)
- MIC (Escherichia coli K-12 R5): 100 mg/L (≈ 212 µM)
- MIC (Mycobacterium 607): 1.56 mg/L (≈ 3.31 µM)
- MIC [4]: 0.78 mg/L (≈ 1.65 µM)
- MIC ([5]; Escherichia coli): 0.78 mg/L (≈ 1.65 µM)
- MIC [6]: 1.56 mg/L (≈ 3.31 µM)
- MIC [7]: 3.12 mg/L (≈ 6.62 µM)
- MIC (Providencia sp. Pv 16): 12.5 mg/L (≈ 26.5 µM)
- LD50 (in vivo): 250 mg/kg
- MIC (Proteus rettgeri GN 311): 0.39 mg/L (≈ 0.827 µM)
- MIC [8]: 0.39 mg/L (≈ 0.827 µM)
- MIC [9]: 1.56 mg/L (≈ 3.31 µM)

Compound: NCC[C@H](O)C(=O)N[C@@H]1C[C@H](N)[C@@H](O[C@H]2O[C@H](CN)CC[C@H]2N)C(F)(F)[C@H]1O[C@H]1O[C@H](CO)[C@@H](O)[C@H](N)[C@H]1O [Compound 5FF-DKB-AHB, 1-N-[(S)-4-amino-2-hydroxybutyryl]-5,3',4'-trideoxy-5,5-difluorokanamycin B]
- MIC (Escherichia coli JR225): < 0.2 mg/L
- MIC (Serratia marcescens): 1.56 mg/L (≈ 2.72 µM)
- MIC [1]: 12.5 mg/L (≈ 21.8 µM)
- MIC (Escherichia coli K-12): < 0.2 mg/L
- MIC (Bacillus subtilis PCI219): 0.39 mg/L (≈ 0.681 µM)
- MIC [2]: < 0.2 mg/L
- MIC [3, 10]: < 0.2 mg/L
- MIC (Escherichia coli K-12 R5): 3.12 mg/L (≈ 5.45 µM)
- MIC (Mycobacterium 607): 0.78 mg/L (≈ 1.36 µM)
- MIC [4]: 0.39 mg/L (≈ 0.681 µM)
- MIC [5, 11]: 0.39 mg/L (≈ 0.681 µM)
- MIC [6]: 0.39 mg/L (≈ 0.681 µM)
- MIC [7]: 3.12 mg/L (≈ 5.45 µM)
- MIC (Providencia sp. Pv 16): 0.78 mg/L (≈ 1.36 µM)
- LD50 (in vivo): ~200 mg/kg
- MIC (Proteus rettgeri GN 311): 0.39 mg/L (≈ 0.681 µM)
- MIC [8]: 0.78 mg/L (≈ 1.36 µM)
- MIC [9]: 0.78 mg/L (≈ 1.36 µM)

Compound: CN[C@@H]1[C@@H](O)[C@@H](O[C@H]2[C@H](N)C[C@H](N)[C@@H](O[C@H]3O[C@H]([C@@H](C)NC)CC[C@H]3N)C2(F)F)OC[C@]1(C)O [Compound 5FF-Genta-C1, 5-deoxy-5,5-difluorogentamicin C1]
- MIC (Escherichia coli JR225): 12.5 mg/L (≈ 25.1 µM)
- MIC (Serratia marcescens): 1.56 mg/L (≈ 3.14 µM)
- MIC [1]: 25 mg/L (≈ 50.2 µM)
- MIC (Escherichia coli K-12): 1.56 mg/L (≈ 3.14 µM)
- MIC (Bacillus subtilis PCI219): 1.56 mg/L (≈ 3.14 µM)
- MIC [2]: 3.12 mg/L (≈ 6.27 µM)
- MIC ([3]; Escherichia coli): 0.78 mg/L (≈ 1.57 µM)
- MIC (Escherichia coli K-12 R5): 1.56 mg/L (≈ 3.14 µM)
- MIC (Mycobacterium 607): 1.56 mg/L (≈ 3.14 µM)
- MIC [4]: 1.56 mg/L (≈ 3.14 µM)
- MIC [5, 11]: 1.56 mg/L (≈ 3.14 µM)
- MIC [6]: 0.78 mg/L (≈ 1.57 µM)
- MIC [7]: 12.5 mg/L (≈ 25.1 µM)
- MIC (Providencia sp. Pv 16): 25 mg/L (≈ 50.2 µM)
- LD50 (in vivo): ~200 mg/kg
- MIC (Proteus rettgeri GN 311): 1.56 mg/L (≈ 3.14 µM)
- MIC [8]: 6.25 mg/L (≈ 12.6 µM)
- MIC [9]: 3.12 mg/L (≈ 6.27 µM)
